Laboratory results as given in patent US9340577B2, “HLA binding motifs and peptides and their uses” (priority 1992, dated 2016).
No end group written: not given here.

Key:
Assay in all cases: biochemical
Type in all cases: binding
HLA-A11 (A*1101) = HLA-A11 (A*1101) (Homo sapiens, UniProt P04439, A114D/D185E/E176A/F33Y/L180Q/S129P/T187R)
A31 (A*3101) = A31 (A*3101) (Homo sapiens, UniProt P04439, A270S/D185E/E176V/E277Q/F33T/G231S/G80R/H175R/I121M/I218V/I322F/K168Q/L300P/L318F/M331R/P217A/Q94H/R138Q/T323A/T345S/T97I/V358M)
A*6801 = A*6801 (Homo sapiens, UniProt P04439, A269V/D185E/E176V/E277Q/E87N/F33Y/G231S/I121M/I166T/I218V/L180W/L300P/L318F/N151K/P208A/P217A/Q86R/R169H/T345S)
A*3301 = A*3301 (Homo sapiens, UniProt P04439, A270S/D185E/E176V/E277Q/E87N/F33T/G231S/H175R/I121M/I218V/I322F/K168Q/K210R/L300P/L318F/M331R/P217A/Q86R/Q94H/R138Q/T323A/T345S/T97I/V358M/Y195H)
HLA-A3.2 (A*0301) = HLA-A3.2 (A*0301) (Homo sapiens, UniProt P04439)

Compound | IC50 (HLA-A11 (A*1101)) | IC50 (A31 (A*3101)) | IC50 (A*6801) | IC50 (A*3301) | IC50 (HLA-A3.2 (A*0301))
NSNAAAFLR [Peptide 88.0387] | 213 nM | 158 nM | 20 nM | 50 nM | > 20000 nM
WTIAYIEYRK [Peptide 9017.0244] | 62 nM | 885 nM | 1.2 nM | 493 nM | 4650 nM
KTDEGGDWK [Peptide 88.0380] | 407 nM | > 20000 nM | 9890 nM | 13100 nM | 3630 nM
VFCGPANTGK [Peptide 88.0150] | 1660 nM | 485 nM | 3000 nM | 811 nM | 1950 nM
SSCMGGMNR [Peptide 1556.59] | 16 nM | 54 nM | 110 nM | 39 nM | 206 nM
LTSQIEHWK [Peptide 88.0439] | 14 nM | 8880 nM | 24 nM | > 20000 nM | 4940 nM
KVSPIVHLK [Peptide 1589.42] | 30 nM | 6 nM | 25 nM | > 20000 nM | 21 nM
KSFLKGTPKK [Peptide 88.0149] | 89 nM | 572 nM | > 20000 nM | > 20000 nM | 48 nM
KSFLKGTPK [Peptide 88.0344] | 23 nM | 22 nM | 1910 nM | 16100 nM | 16 nM
AAEGVGAASR [Peptide 9017.0187] | 478 nM | 3270 nM | 450 nM | 5100 nM | > 20000 nM
SSIVGWPAVR [Peptide 9017.0185] | 22 nM | 26 nM | 14 nM | 648 nM | 3170 nM
SVYGDTLEK [Peptide 78.0277] | 14 nM | > 20000 nM | 17 nM | > 20000 nM | 72 nM
TLYAEPPK [Peptide 1556.12] | 269 nM | > 20000 nM | 1980 nM | > 20000 nM | 734 nM
QSNPYPEPK [Peptide 9017.0070] | 46 nM | 513 nM | 868 nM | > 20000 nM | 1040 nM
ISWLGLRSLK [Peptide 9012.0234] | 18 nM | 265 nM | 39 nM | 2500 nM | 31 nM
QVVPALSVSK [Peptide 1589.13] | 25 nM | 8920 nM | 12 nM | > 20000 nM | 825 nM
RLKAICIEK [Peptide 1587.01] | 520 nM | 20 nM | > 20000 nM | > 20000 nM | 43 nM
KSCFAMSLIK [Peptide 88.0190] | 17 nM | 311 nM | 12200 nM | > 20000 nM | 57 nM
QTCALYWFR [Peptide 88.0361] | 64 nM | 51 nM | 18 nM | 19 nM | 1960 nM
CC(C)C[C@H](NC(=O)[C@H](Cc1c[nH]cn1)NC(=O)[C@H](CO)NC(=O)[C@H](CO)NC(=O)[C@H](Cc1c[nH]cn1)NC(=O)[C@H](C)NC(=O)[C@@H](N)CCCNC(=N)N)C(=O)N[C@@H](CCCCN)C(=O)O [Peptide 1556.70] | 18 nM | 619 nM | 2880 nM | > 20000 nM | 27 nM
EQNEALELK [Peptide 1556.69] | 128 nM | 2300 nM | 11800 nM | > 20000 nM | 166 nM
VTVYYGIPVWR [Peptide 1525.05] | 17 nM | 3.8 nM | 3.6 nM | 4.5 nM | 123 nM
LQGKLYYKFK [Peptide 88.0184] | 130 nM | 3710 nM | > 20000 nM | 16200 nM | 724 nM
RLLKETELRK [Peptide 9012.0248] | 52 nM | 7010 nM | 12800 nM | > 20000 nM | 27 nM
ISYGRKKRR [Peptide 9017.0079] | > 20000 nM | 36 nM | 1360 nM | 1120 nM | 9280 nM
AILGHIVIPR [Peptide 9017.0224] | 48 nM | 2 nM | 42 nM | 102 nM | 31 nM
KQEAVRHFPR [Peptide 9017.0239] | 394 nM | 9.9 nM | 6740 nM | 575 nM | 9260 nM

Compound | IC50 (HLA-A11 (A*1101)) | IC50 (A31 (A*3101)) | IC50 (A*6801) | IC50 (A*3301) | IC50 (HLA-A3.2 (A*0301))
TQQMLQVEGR [Peptide 88.0128] | 3000 nM | 354 nM | 739 nM | 1850 nM | > 20000 nM
QVVPAYNISK [Peptide 1589.06] | 15 nM | 6660 nM | 7.6 nM | > 20000 nM | 326 nM
VTIYYGVPVWR [Peptide 1525.04] | 3 nM | 4 nM | 3.4 nM | 51 nM | 920 nM
VTVKIGGELK [Peptide 1516.03] | 39 nM | > 20000 nM | 33 nM | > 20000 nM | 4110 nM
GTRQARKNRR [Peptide 9017.0200] | 2920 nM | 56 nM | 1480 nM | 8370 nM | 1550 nM
LLFYSKVRK [Peptide 78.0298] | 13 nM | 395 nM | 23 nM | 799 nM | 3.9 nM
AVMCRHYKR [Peptide 1587.53] | 31 nM | 14 nM | 25 nM | 59 nM | 213 nM
KTLLQPYCLY [Peptide 88.0153] | 405 nM | 4280 nM | > 20000 nM | 19600 nM | 180 nM
QVVPPINISK [Peptide 1589.23] | 11 nM | 1560 nM | 14 nM | > 20000 nM | 1280 nM
GSLQYLALK [Peptide 9017.0096] | 6.6 nM | 72 nM | 10000 nM | 14400 nM | 17 nM
VFADLRIVYR [Peptide 78.0073] | 2090 nM | 31 nM | 197 nM | 52 nM | > 20000 nM
NSNAAAFLK [Peptide 88.0342] | 19 nM | 2640 nM | 22 nM | 665 nM | 955 nM
RQMNMSQWIK [Peptide 1587.54] | 7.5 nM | 41 nM | 3110 nM | > 20000 nM | 18 nM
KTASVGTPK [Peptide 1589.27] | 13 nM | 44 nM | 8.5 nM | > 20000 nM | 11 nM
ATNKMFCQLAK [Peptide 1556.47] | 7.3 nM | 160 nM | 1620 nM | > 20000 nM | 29 nM
QQMFLGTVK [Peptide 88.0415] | 22 nM | 7170 nM | 1580 nM | > 20000 nM | 2040 nM
AQIEHWKLTR [Peptide 88.0226] | 63 nM | 293 nM | 2900 nM | > 20000 nM | 2070 nM
NVAPIVHLK [Peptide 1589.21] | 394 nM | > 20000 nM | 2.4 nM | > 20000 nM | 6380 nM
KLGIVTITY [Peptide 88.0428] | 3430 nM | > 20000 nM | > 20000 nM | > 20000 nM | 65 nM
ETQRQQFLK [Peptide 1589.32] | 28 nM | 3920 nM | 30 nM | 80 nM | 1010 nM
GSQPKTACNK [Peptide 9017.0202] | 30 nM | 1480 nM | 15800 nM | > 20000 nM | 472 nM
TALIKPKKR [Peptide 9017.0102] | 2730 nM | 1740 nM | 295 nM | 774 nM | > 20000 nM
SFFQNLQVIR [Peptide 9012.0232] | 3990 nM | 432 nM | 1400 nM | 702 nM | 3800 nM
FLSQVKIPK [Peptide 1589.05] | 22 nM | 72 nM | 48 nM | 158 nM | 86 nM
RLECAIYYK [Peptide 1589.01] | 30 nM | 150 nM | 7020 nM | 6550 nM | 55 nM
FADLTVVYR [Peptide 78.0318] | 9020 nM | 1780 nM | 39 nM | 310 nM | 19200 nM
LSALKLFLK [Peptide 1587.39] | 31 nM | 96 nM | 2210 nM | 1820 nM | 957 nM
